According to patent EP0642348B1, “[…] PEPTIDES AND METHODS OF THEIR USE” (THE REGENTS OF THE UNIVERSITY OF CALIFORNIA, priority 1992, dated 2000):
No end group written: not given here.

Legend:
[1] = system: phoP mutant S. typhimurium; conditions: compared to wild-type parent strains; Fields et al., Miller et al. 1990; cited from earlier work
[2] = system: wild-type Salmonella typhimurium (ATCC 10428); test: agar (plate) diffusion antibacterial assay, clear zones; assay type: cell-based; conditions: wild-type S. typhimurium; modified plate diffusion assay; result in words, compared with the phoP mutant
Description: (§1) • Figure 1 provides the consensus structures of mouse cryptdins 1-5 and rat cryptdin-1. Amino acid residues are indicated by single-letter code. Dashed lines are included in mouse cryptdin-4 and rat cryptdin-1 in order to preserve the consensus sequence where these peptides are shorter than other cryptdins. Invariant residues in the enteric cryptdin peptides are boxed. […] Acid extract of jejunum and ileum was chromatographed in 30% acetic acid on a P-60 column. Fractions indicated by the bracket (panel A) were pooled and rechromatographed on the P-60 column (panel B). Cryptdin containing fractions (bracket, panel B) were pooled and further purified by RP-HPLC on 0.46 x 25 cm Vydac C-18 column. Water-acetonitrile gradient elution (--) using 0.13% (vol/vol) HFBA as modifier was used to purify cryptdins 1-5. […] Samples of low molecular weight enteric peptides obtained by P-60 gel filtration (Figure 2, [panel B]) and purified cryptdins were electrophoresed on a 12.5% acid-urea gel and stained with formalin-containing Coomassie Blue. […] After incubation at 37°C for 18 hours, antimicrobial activity was evaluated by measurement of the diameters of the clear zones. […]
(§2) The antimicrobial, or antibacterial, activity of cryptdins can be measured against various pathogens. […]

[3] = system: isogenic phoP mutant of S. typhimurium (strain CS015 phoP102::Tn10d-Cam); test: as above; assay type: cell-based; conditions: phoP mutant (attenuated, avirulent) S. typhimurium; modified plate diffusion assay; result in words, compared with wild-type
Description: as §1, §2

| Substance | sensitivity of mutants in the phoP locus [1] | antimicrobial activity [2] | antimicrobial activity [3] |
| --- | --- | --- | --- |
| NP-1: rabbit defensin (VVCACRRALCLPRERRAGFCRIRGRIHPLCCRR; ends and bridges not checked; cysteine pairing not given here; UniProt P01376 63-95, looked up) | particularly sensitive | quite similar | quite similar |
| NP-2: rabbit defensin (VVCACRRALCLPLERRAGFCRIRGRIHPLCCRR; ends and bridges not checked; cysteine pairing not given here; UniProt P01377 63-95, looked up) | particularly sensitive | – | – |
